Laboratory results taken from ChEMBL document CHEMBL1201862, “PubChem BioAssay data set” (2004).
The source made the active and inactive calls.

Assays:
Cytochrome P450 3A4 = Cytochrome P450 3A4 (Homo sapiens, UniProt P08684); settings: Potency;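 note: confirmatory qHTS run detecting inhibitors and substrates of CYP3A4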
[1] = biological target: Luciferin 4-monooxygenase (Photinus pyralis, UniProt P08659); assay: Counter Screen for Luciferase-based Assay Positives. [Related pubchem assays: 620, 618, 411 ]
Sequence of Luciferin 4-monooxygenase (P08659 whole entry): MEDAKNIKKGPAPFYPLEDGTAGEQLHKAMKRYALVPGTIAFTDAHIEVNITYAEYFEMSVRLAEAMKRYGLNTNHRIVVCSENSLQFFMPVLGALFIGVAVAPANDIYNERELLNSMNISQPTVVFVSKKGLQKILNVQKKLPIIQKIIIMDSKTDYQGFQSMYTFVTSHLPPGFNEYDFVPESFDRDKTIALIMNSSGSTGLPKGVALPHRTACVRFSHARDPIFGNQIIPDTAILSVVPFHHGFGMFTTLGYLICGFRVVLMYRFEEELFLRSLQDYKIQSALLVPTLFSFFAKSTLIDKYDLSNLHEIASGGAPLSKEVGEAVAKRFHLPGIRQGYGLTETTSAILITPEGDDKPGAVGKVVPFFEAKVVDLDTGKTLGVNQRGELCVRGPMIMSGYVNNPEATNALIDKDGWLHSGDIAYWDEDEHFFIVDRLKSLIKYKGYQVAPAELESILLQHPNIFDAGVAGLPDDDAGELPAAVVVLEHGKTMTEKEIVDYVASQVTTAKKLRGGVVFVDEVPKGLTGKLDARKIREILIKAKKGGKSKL

HT-1080 = assay: HT1080 cell viability loss – fluorescence readout (AID 620); assay type: functional, cell-based; settings: Homo sapiens
HeLa = assay: Cytotoxicity counterscreen assay for transcriptional activators of heat shock protein 70 (Hsp70). [Related pubchem assays: 1203, 1252 ]; assay type: functional; settings: Homo sapiens
SUMO-activating enzyme [2] = biological target: T1, SUMO-activating enzyme (Homo sapiens, UniProt Q9UBT2); assay: blockers of SAE1/SAE2–UBC9 SUMO transfer – biochemical, HTRF, uHTS, primary screen (AID 2006); assay type: protein-complex assay
T1 sequence (Q9UBE0 whole entry): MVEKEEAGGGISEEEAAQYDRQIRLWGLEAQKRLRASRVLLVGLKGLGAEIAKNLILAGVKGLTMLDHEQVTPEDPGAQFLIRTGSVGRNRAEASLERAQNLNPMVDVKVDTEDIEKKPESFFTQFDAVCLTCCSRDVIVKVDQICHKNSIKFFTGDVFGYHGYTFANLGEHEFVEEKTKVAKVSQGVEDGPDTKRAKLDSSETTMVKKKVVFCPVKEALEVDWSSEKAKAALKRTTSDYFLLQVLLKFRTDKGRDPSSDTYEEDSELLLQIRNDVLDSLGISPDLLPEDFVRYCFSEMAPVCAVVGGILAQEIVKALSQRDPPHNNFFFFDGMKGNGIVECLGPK
T1 sequence (Q9UBT2 whole entry): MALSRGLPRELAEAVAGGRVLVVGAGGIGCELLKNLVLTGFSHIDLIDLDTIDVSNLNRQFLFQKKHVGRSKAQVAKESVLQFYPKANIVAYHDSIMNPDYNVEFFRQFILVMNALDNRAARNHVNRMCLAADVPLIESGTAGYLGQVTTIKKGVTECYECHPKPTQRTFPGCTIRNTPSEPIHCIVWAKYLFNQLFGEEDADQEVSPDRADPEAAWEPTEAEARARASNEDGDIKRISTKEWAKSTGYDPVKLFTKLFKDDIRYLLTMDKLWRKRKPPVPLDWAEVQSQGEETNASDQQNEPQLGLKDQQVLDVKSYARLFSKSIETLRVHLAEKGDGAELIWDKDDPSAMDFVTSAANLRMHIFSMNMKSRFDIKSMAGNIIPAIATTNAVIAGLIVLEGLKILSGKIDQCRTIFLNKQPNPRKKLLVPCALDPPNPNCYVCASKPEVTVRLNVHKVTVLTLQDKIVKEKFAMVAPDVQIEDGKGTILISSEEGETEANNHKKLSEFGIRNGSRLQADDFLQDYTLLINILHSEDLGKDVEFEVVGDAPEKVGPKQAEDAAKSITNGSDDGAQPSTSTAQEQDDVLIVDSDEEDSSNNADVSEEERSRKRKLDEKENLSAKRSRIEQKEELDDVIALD

SUMO-activating enzyme [3] = biological target: T1, SUMO-activating enzyme; assay: blockers of UBC9-mediated SUMO conjugation – biochemical, AlphaScreen, SUMOylation inhibitor project, confirmation (AID 2018); assay type: functional
[4] = biological target: Eukaryotic translation initiation factor 4H (Homo sapiens, UniProt Q15056); assay: eIF4H binding inhibition – biochemical, uHTS, fluorescence polarization, translation initiation inhibitor project, primary screen (AID 2012)
[5] = biological target: Serine/threonine-protein phosphatase PP1-alpha catalytic subunit (Homo sapiens, UniProt P62136); assay: inhibition of protein phosphatase 1 activity – biochemical, fluorescence, dose response (AID 2403);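 note: phosphatase turnover of OMFP into fluorescent 3-O-methylfluorescein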
Sequence of Serine/threonine-protein phosphatase PP1-alpha catalytic subunit (P62136 whole entry): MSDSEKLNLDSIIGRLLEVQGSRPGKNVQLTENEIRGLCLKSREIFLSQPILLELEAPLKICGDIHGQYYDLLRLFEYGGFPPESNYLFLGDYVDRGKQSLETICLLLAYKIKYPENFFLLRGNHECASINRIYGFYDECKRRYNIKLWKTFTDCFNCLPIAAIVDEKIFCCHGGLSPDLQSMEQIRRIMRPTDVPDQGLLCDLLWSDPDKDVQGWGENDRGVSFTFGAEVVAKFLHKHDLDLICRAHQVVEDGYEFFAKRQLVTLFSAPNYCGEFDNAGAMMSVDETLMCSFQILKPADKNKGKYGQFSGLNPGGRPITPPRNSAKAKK

[6] = biological target: T2, Serine/threonine-protein phosphatase (Homo sapiens, UniProt Q9BPW0); assay: Counterscreen for inhibitors of PP1: fluorescence-based biochemical high throughput dose response assay to identify inhibitors of Protein Phosphatase 5 (PP5). [Related pubchem assays: 2034 (Summary (PP5 inhibitors)), 1987 (PP5 inhibitors in singlate), 2235 (PP1 inhibitors in singlate)]
T2 sequence (Q9BPW0 whole entry): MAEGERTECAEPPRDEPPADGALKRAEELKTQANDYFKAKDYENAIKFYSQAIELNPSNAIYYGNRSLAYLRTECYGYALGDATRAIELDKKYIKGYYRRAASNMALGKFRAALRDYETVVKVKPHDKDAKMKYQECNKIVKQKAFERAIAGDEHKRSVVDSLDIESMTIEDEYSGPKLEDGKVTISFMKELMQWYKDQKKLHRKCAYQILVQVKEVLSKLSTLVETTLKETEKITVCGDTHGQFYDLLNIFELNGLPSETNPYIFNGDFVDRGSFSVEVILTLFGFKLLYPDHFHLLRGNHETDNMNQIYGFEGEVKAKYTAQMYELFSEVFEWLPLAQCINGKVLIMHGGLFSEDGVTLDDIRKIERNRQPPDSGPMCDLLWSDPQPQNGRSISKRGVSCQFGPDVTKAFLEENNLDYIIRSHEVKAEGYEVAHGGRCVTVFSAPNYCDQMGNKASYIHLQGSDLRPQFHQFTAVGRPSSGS

[7] = biological target: Polyadenylate-binding protein 1 (Homo sapiens, UniProt P11940); assay: blockers of PABP interaction with poly(A) – biochemical, fluorescence polarization, […] (AID 2014)
Sequence of Polyadenylate-binding protein 1 (P11940 whole entry): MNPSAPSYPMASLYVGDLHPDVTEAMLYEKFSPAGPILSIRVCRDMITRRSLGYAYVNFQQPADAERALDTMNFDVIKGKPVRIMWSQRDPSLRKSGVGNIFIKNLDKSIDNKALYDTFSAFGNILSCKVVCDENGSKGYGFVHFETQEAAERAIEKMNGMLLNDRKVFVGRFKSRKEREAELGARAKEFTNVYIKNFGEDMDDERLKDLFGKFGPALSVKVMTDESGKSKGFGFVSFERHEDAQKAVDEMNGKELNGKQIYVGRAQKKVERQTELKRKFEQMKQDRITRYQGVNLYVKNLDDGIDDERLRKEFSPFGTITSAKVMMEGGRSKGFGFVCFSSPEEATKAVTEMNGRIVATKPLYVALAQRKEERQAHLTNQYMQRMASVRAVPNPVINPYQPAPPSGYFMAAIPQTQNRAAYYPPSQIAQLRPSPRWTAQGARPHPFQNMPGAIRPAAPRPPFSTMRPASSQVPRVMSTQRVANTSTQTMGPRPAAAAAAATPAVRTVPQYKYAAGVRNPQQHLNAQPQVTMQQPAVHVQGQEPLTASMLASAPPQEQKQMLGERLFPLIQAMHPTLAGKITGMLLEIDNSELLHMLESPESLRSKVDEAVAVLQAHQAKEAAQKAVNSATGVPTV

[8] = HEK-293T cell viability reduction – luminescence, B-cell screen hits, cytotoxicity control for BCR NF-kB inhibitor project, dose response (AID 489021); assay type: functional, cell-based;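 note: HEK-293T cells carrying an NF-kB luciferase reporter; cells exposed to compound for about 14 hours before viability readout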
[9] = biological target: Peroxisome proliferator-activated receptor gamma/Nuclear receptor coactivator 3 (Homo sapiens, UniProt P37231); assay: (§1) TR-FRET dose response biochemical High Throughput Screening assay for agonists of the steroid receptor coactivator 3 (SRC-3) recruitment by the peroxisome proliferator-activated receptor gamma (PPAR gamma): non-selective agonists. [Related pubchem assays: 1301 (Confirmation screen.), 1048 (Primary screen.)]; assay type: functional
[10] = biological target: Peroxisome proliferator-activated receptor gamma/Nuclear receptor coactivator 1 (Homo sapiens, UniProt P37231); assay: as §1, with “1 (SRC-1)” for “3 (SRC-3)”, “assays (depositor defined):AID1300, AID1808, AID504735, AID631]” for “assays: 1301 (Confirmation screen.), 1048 (Primary screen.)]”; assay type: protein assay
[11] = biological target: Peroxisome proliferator-activated receptor gamma/Nuclear receptor coactivator 2 (Homo sapiens, UniProt P37231); assay: TR-FRET dose response biochemical High Throughput Screening assay for agonists of the steroid receptor coactivator 2 (SRC-2) recruitment by the peroxisome proliferator-activated receptor gamma (PPAR gamma): non-selective agonists. [Related pubchem assays: 1297, 1032 ]; assay type: functional
Sequence of Peroxisome proliferator-activated receptor gamma/Nuclear receptor coactivator 2 (P37231 whole entry): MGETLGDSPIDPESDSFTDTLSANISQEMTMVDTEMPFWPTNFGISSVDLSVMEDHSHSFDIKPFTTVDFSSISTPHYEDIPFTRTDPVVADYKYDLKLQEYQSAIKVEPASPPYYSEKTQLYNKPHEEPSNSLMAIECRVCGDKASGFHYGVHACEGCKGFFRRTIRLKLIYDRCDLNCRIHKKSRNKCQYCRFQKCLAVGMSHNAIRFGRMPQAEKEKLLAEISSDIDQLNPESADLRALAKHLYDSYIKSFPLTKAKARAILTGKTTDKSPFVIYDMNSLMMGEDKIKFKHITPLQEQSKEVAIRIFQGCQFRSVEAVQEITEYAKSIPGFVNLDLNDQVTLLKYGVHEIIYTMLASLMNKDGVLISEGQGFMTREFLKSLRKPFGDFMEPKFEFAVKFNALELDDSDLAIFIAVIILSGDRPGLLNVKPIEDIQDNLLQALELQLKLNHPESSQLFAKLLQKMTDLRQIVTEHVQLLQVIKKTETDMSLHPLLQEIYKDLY
Sequence of Peroxisome proliferator-activated receptor gamma/Nuclear receptor coactivator 2 (Q15596 whole entry, further chain): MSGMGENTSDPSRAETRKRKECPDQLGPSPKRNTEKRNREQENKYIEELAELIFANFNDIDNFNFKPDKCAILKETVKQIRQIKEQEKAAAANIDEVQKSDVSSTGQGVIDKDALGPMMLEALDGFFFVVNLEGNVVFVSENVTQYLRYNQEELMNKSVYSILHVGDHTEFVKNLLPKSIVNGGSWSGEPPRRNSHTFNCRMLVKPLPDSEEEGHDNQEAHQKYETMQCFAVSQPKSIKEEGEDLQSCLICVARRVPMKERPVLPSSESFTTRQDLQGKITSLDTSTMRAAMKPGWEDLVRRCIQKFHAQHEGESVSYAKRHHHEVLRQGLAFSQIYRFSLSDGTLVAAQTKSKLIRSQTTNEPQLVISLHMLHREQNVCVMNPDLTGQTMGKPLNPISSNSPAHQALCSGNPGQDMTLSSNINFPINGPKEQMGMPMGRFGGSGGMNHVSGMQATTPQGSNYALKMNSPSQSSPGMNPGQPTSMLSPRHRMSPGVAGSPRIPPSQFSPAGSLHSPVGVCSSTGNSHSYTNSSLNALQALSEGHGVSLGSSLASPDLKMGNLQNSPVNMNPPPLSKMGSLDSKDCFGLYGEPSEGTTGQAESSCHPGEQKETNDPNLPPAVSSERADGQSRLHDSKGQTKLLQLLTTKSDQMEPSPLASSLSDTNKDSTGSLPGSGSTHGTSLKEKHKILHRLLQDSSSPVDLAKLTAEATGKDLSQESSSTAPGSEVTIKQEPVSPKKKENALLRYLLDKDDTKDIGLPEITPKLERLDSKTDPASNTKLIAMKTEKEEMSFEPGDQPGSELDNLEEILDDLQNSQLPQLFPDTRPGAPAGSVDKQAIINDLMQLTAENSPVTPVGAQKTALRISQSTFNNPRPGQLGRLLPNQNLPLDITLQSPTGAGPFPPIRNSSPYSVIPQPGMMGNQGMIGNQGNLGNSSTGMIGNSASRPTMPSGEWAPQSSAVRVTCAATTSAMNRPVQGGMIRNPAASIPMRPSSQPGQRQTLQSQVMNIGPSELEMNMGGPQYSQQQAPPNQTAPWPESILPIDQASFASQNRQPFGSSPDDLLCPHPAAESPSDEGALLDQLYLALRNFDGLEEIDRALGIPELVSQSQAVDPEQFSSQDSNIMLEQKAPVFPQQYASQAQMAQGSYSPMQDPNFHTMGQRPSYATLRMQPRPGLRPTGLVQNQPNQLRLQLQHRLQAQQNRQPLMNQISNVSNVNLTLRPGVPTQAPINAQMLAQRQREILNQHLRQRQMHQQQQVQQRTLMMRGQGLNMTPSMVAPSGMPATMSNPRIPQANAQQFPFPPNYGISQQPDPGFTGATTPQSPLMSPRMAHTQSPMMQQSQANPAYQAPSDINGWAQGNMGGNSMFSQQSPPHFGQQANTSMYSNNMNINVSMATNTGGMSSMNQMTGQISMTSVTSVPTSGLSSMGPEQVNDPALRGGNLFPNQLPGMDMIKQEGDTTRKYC

[12] = biological target: T3, Lytic switch protein BZLF1 (Epstein-Barr virus (strain B95-8) (HHV-4) (Human herpesvirus 4), UniProt P03206); assay: inhibition of BZLF1 ZTA DNA binding – biochemical, fluorescence polarization, Epstein-Barr virus, 1536-well, counter-screen for EBNA-1 inhibitor project, dose response (AID 2377); design: species or system human gammaherpesvirus 4;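 note: fluorescence polarization of Cy5-labelled ZRE DNA probe bound by purified Zta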
T3 sequence (P03206 whole entry): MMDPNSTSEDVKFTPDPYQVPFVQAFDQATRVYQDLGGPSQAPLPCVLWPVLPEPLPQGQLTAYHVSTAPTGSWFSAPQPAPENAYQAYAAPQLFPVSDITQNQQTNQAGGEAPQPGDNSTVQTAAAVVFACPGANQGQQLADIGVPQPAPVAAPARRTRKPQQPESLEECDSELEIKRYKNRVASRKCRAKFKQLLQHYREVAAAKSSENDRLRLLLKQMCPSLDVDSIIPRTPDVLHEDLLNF

[13] = biological target: T4, Epstein-Barr nuclear antigen 1 (Epstein-Barr virus (strain B95-8) (HHV-4) (Human herpesvirus 4), UniProt P03211); assay: inhibition of EBV nuclear antigen 1 DNA binding – biochemical, fluorescence polarization, 1536-well, dose response (AID 2381); design: species or system human gammaherpesvirus 4;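 note: fluorescence polarization of a Cy5 DNA probe bound by EBNA-1 protein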
T4 sequence (P03211 whole entry): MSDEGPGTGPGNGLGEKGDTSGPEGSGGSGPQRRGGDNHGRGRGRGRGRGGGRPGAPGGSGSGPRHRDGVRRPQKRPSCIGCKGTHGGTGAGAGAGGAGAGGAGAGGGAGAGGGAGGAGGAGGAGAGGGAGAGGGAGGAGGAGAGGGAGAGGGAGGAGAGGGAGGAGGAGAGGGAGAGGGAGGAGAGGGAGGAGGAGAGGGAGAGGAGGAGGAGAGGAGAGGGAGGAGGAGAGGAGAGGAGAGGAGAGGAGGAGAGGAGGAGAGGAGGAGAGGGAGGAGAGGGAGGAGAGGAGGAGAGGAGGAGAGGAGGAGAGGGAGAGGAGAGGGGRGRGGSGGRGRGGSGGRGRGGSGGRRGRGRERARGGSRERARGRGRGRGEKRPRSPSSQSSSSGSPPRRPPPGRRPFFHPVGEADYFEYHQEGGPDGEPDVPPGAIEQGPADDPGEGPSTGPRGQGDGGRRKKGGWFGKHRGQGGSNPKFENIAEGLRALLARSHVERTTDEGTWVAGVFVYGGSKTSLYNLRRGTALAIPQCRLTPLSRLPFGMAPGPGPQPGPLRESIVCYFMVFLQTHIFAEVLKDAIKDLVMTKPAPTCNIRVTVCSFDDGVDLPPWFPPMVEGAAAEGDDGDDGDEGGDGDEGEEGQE
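Throughout, for CC50: cells exposed to compound for 16 hours before readout.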

Sequence of Cytochrome P450 3A4 (P08684 whole entry): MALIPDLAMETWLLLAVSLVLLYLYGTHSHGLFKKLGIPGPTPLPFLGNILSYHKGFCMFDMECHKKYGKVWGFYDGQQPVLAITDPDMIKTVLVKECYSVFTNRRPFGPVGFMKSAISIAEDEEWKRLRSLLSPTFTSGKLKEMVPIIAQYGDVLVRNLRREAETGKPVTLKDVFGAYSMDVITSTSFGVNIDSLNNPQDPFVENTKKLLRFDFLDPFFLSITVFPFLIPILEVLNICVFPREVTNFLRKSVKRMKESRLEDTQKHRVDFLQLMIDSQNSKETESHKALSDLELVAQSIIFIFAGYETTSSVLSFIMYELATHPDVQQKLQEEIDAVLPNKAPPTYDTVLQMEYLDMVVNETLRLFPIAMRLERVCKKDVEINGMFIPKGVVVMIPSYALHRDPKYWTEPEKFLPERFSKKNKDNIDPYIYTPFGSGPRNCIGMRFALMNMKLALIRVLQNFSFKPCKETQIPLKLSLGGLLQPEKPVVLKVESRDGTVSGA

## C[C@H]1[C@H](C)CC[C@]2(C(=O)O)CC[C@]3(C)C(=CCC4[C@@]5(C)C[C@@H](O)[C@H](O)[C@@](C)(CO)[C@@H]5CC[C@]43C)[C@H]12 (some centres not stated)
Cytochrome P450 3A4
  AC50: 15.8 µM (inconclusive)

## Cc1ccc(O)c(/C=N/NC(=O)C2=NNC(c3ccccc3)(c3ccccc3)C2)c1
[1]
  EC50: 5.52 µM (active)
HT-1080
  EC50: > 50 µM (not active)

## COCCn1c(C)cc(C(=O)CSc2nc3ccccc3c(=O)n2C(C)COC)c1C (configuration not stated)
HeLa
  CC50: > 99 µM (not active)

## N#Cc1c(-c2ccc(Cl)cc2)cc(-c2cccs2)nc1SCC(=O)O
SUMO-activating enzyme [2]
  IC50: > 100 µM (inactive)
SUMO-activating enzyme [3]
  IC50: 8.73 µM (active)
[4]
  IC50: 10.7 µM (active)
[5]
  IC50: 6.66 µM (active)
[6]
  IC50: > 67 µM (not active)
[7]
  IC50: 39.7 µM (active)

## COc1ccc(N=C(S)NCc2ccccc2)c(OC)c1
[8]
  IC50: > 80 µM (inactive)

## c1ccc(N2CCN(Cc3nc4ccccc4[nH]3)CC2)nc1
Cytochrome P450 3A4
  AC50: 25.1 µM (inconclusive)

## O=C(CSc1ncnc2c1oc1ccccc12)Nc1cccc(F)c1
[9]
  EC50: > 79.4 µM (not active)
[10]
  EC50: > 26.5 µM (inactive)
[11]
  EC50: 15.6 µM (not active)
[12]
  IC50: > 111 µM (not active)
[13]
  IC50: > 148 µM (not active)
